The target in this assay is KRAS-G12C/SOS1 (Homo sapiens (Human), UniProt Q07889). Nature of the assay: Detection of inhibitory effects of compounds on KRAS-G12C/SOS1 (KRASG12C/SOS binding kit, HTRF). Particulars: Em665/620, read-out: IC50, inhibitory activity on interaction of KRAS-G12C/SOS1. An excerpt: Experimental objective: The inhibitory effects of the tested compounds on KRAS-G12C/SOS1 were detected. IC50 was used to characterize the inhibitory ability of the compounds on the KRAS-G12C/SOS1. The lower IC50 value indicated the stronger inhibitory ability. BI-3406 was used as a positive control compound.
KRAS-G12C/SOS1, sequence (Q07889 whole entry, stated change not applied): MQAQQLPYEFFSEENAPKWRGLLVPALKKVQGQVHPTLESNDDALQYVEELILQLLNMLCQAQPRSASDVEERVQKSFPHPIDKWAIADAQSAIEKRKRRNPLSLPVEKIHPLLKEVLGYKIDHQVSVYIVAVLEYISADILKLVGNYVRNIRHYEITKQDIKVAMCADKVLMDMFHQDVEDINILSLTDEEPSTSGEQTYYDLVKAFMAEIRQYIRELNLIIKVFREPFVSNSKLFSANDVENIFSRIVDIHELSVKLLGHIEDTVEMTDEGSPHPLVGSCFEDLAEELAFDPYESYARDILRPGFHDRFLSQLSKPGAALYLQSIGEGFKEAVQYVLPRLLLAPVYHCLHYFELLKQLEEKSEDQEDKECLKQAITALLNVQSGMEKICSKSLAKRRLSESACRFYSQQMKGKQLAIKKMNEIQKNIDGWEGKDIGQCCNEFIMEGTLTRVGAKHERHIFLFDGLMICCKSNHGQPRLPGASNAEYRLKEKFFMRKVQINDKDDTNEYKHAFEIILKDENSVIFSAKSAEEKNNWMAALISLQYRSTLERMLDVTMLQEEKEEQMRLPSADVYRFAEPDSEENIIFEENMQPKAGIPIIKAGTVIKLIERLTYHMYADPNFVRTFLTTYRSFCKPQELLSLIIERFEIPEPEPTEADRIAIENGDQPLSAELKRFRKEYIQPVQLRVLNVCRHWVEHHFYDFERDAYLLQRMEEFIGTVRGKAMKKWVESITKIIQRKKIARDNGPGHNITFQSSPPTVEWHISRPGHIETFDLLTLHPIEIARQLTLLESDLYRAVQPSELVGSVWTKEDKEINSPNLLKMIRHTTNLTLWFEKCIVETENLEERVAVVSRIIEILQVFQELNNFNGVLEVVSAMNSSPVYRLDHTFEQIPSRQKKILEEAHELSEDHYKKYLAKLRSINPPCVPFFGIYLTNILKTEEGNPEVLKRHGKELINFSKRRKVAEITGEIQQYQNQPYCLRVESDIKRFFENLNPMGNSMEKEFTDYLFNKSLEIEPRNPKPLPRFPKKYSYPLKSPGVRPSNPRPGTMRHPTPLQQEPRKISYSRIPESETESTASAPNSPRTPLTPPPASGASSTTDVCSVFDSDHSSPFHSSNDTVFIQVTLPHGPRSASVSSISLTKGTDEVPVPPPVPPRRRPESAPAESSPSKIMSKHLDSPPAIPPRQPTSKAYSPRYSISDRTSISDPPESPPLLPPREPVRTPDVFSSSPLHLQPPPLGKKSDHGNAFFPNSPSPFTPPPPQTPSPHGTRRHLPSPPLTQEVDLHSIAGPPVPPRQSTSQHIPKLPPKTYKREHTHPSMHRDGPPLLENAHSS
Experimental reagents: KRASG12C/SOS binding kit (Cisbio, cat. 63ADK000CB16PEG); DMSO (Sigma, cat. D8418-1L); and 384-well white plate (PerkinElmer, cat. 6007290)
• 1. Preparation of compounds: the test compounds were dissolved in 100% DMSO to obtain 10 mM stock solutions and the stock solutions were stored in a refrigerator in the dark. • 2. Kinase reaction process:
Preparation of compounds: the test compounds had the concentration of 5,000 nM and diluted in a 384-well plate into a 100% DMSO solution at the 200-fold final concentration, and the compounds were diluted 3-fold with 10 concentrations. 50 nL of the compounds at the 200-fold final concentration were transferred to the plate of interest, the 384-well plate, using a dispenser Echo 550. 50 nL of 100% DMSO was added to each negative control well and positive control well.
A Tag1-SOS1 solution at the 4-fold final concentration was prepared using a diluent buffer.
2.5 μL of the Tag1-SOS1 solution at the 4-fold final concentration was added to the 384-well plate.
A Tag2-KRAS-G12C solution at the 4-fold final concentration was prepared using the diluent buffer.
2.5 μL of the Tag2-KRAS-G12C solution at the 4-fold final concentration was respectively added into compound wells and the positive control wells; and 2.5 μL of the diluent buffer was added to the negative control wells.
The 384-well plate was centrifuged at 1,000 rpm for 30 seconds, shaken and mixed uniformly, and incubated at room temperature for 15 minutes.
An Anti-Tag1-TB3+ solution at the 1-fold final concentration and an Anti-Tag2-XL665 solution at the 1-fold final concentration were prepared using a detection buffer, the two solutions were mixed uniformly to obtain a Mix solution, and 5 μL of the Mix solution was added into each well.
The 384-well plate was centrifuged at 1,000 rpm for 30 seconds, shaken and mixed uniformly, and incubated at 4° C. for 120 minutes.
Em665/620 was read using an Envision microplate reader.
Inhibition %=(Max signal−Compound signal)/(Max signal−Min signal)×100 Calculation formula • wherein the Min signal was the mean value of the negative control wells, and the Max signal was the mean value of the positive control wells.
A dose-response curve was fitted using the log value of the concentration as an X axis and the percentage of the inhibitory rate as a Y axis by using the log(inhibitor) vs. response-variable slope of an analytical software GraphPadPrism5, thereby obtaining the IC50 value of each compound on an enzyme activity.
On to `Cc1c([C@@H](C)Nc2ccnc3cnc(C4(O)CCC(O)CC4)cc23)cccc1C(F)(F)F` (single isomer, unassigned) [Compound B-84-P1], for which the IC50 is 0.1 to 0.5 µM. To `COc1cc2nccc(N[C@H](C)c3cccc(C(F)F)c3F)c2cc1O[C@H]1CCOC1` [Compound A-3] belongs not above 0.1 µM; to `C[C@@H](Nc1ccnc2cnc(N3CCN(CCO)CC3)cc12)c1cccc(C(F)F)c1F` [Compound B-43], not above 0.1 µM; to `Cc1c(C(F)F)cccc1[C@@H](C)Nc1ccnc2cnc(C3(O)CCC(O)CC3)cc12` (single isomer, unassigned) [Compound B-86-P2], 0.1 to 0.5 µM.

On to `COc1cc2nccc(N[C@H](C)c3cccc(C(F)F)c3F)c2cc1C1(O)CCN(C(C)=O)CC1` [Compound A-58], for which the IC50 was not above 0.1 µM. Regarding `Cc1c(C(F)F)cccc1[C@@H](C)Nc1ccnc2cnc(C3(O)CCC(O)CC3)cc12` (single isomer, unassigned) [Compound B-86-P1], the IC50 lay within 0.1 to 0.5 µM. The result for `C[C@@H](Nc1ccnc2cnc(C3(O)CCC(N4CCNCC4)CC3)cc12)c1cccc(C(F)F)c1F` (single isomer, unassigned) [Compound B-97-P1] reads not above 0.1 µM; that for `C[C@@H](Nc1ccnc2cnc(C(C)(C)O)cc12)c1cccc(C(F)F)c1F` [Compound B-105], not above 0.1 µM; that for `COc1cc2nccc(N[C@H](C)c3cccc(C(F)F)c3F)c2cc1C1(OC)CCN(C(C)=O)CC1` [Compound A-59], not above 0.1 µM. Turning to `COc1cc2nccc(N[C@H](C)c3cccc(C#N)c3C)c2cc1O[C@H]1CCOC1` [Compound A-4], the IC50 fell in the range of 0.1 to 0.5 µM. As to `COc1cc2nccc(N[C@H](C)c3cccc(C(F)F)c3F)c2cc1OC` [Compound A-1], the IC50 was not above 0.1 µM.

Take `CC(=O)C1CCN(c2cc3c(N[C@H](C)c4cccc(C(F)F)c4F)ccnc3c(C)n2)CC1` [Compound B-66]: the IC50 was not above 0.1 µM. Consider `C[C@@H](Nc1ccnc2cnc(N3CC(O)CC3=O)cc12)c1cccc(C(F)F)c1F` (some centres unmarked) [Compound B-57], for which the IC50 is 0.1 to 0.5 µM. In the case of `COc1cc2nccc(N[C@H](C)c3cccc(C(F)F)c3F)c2cc1OC1CCN(C(C)=O)CC1` [Compound A-18], the IC50 is not above 0.1 µM. Consider `C[C@@H](Nc1ccnc2cnc(C(C)(O)C3CC3)cc12)c1cccc(C(F)F)c1F` (some centres unmarked) [Compound B-106], for which the IC50 is not above 0.1 µM. To `C[C@@H](Nc1ccnc2cnc(C3(O)CCC(N(C)C)CC3)cc12)c1cccc(C(F)F)c1F` (single isomer, unassigned) [Compound B-94-P1] belongs not above 0.1 µM; to `C[C@@H](Nc1ccnc2cnc(N3CCC(O)C3=O)cc12)c1cccc(C(F)F)c1F` (some centres unmarked) [Compound B-58], not above 0.1 µM. For `COc1cc2nccc(N[C@H](C)c3cccc(C(F)F)c3F)c2cc1C1CCS(=O)(=O)CC1` [Compound A-46], the IC50 was not above 0.1 µM. On to `C[C@@H](Nc1ccnc2cnc(N3C[C@@H](O)C[C@H]3CO)cc12)c1cccc(C(F)F)c1F` [Compound B-77], for which the IC50 was not above 0.1 µM.

For `COc1cc2nccc(N[C@H](C)c3cccc(C(F)F)c3F)c2cc1O[C@H]1CCNC1` [Compound A-5], the IC50 was not above 0.1 µM.

In the case of `COc1cc2nccc(N[C@H](C)c3cccc(C(F)F)c3F)c2cc1C1=CCS(=O)(=O)CC1` [Compound A-45], the IC50 was not above 0.1 µM. The result for `COc1cc2nccc(N[C@H](C)c3cccc(C(F)F)c3F)c2cc1C1CCN(C(C)=O)CC1` [Compound A-40] reads not above 0.1 µM; that for `COc1cc2nccc(N[C@H](C)c3cccc(C(F)F)c3F)c2cc1C1CCN(S(C)(=O)=O)CC1` [Compound A-41], not above 0.1 µM.

Turning to `COc1cc2nccc(N[C@H](C)c3cccc(C(F)F)c3F)c2cc1O[C@H]1CCN(C(C)=O)C1` [Compound A-6], the IC50 was not above 0.1 µM.

Turning to `Cc1cc(N[C@H](C)c2cccc(C(F)F)c2F)c2cc(C3(O)CCC(O)CC3)ncc2n1` (single isomer, unassigned) [Compound B-88-P1], the IC50 is not above 0.1 µM.

Take `COc1cc2nccc(N[C@H](C)c3cccc(C(F)F)c3F)c2cc1O[C@@H]1CCN(C(C)=O)C1` [Compound A-7]: the IC50 lay within 0.1 to 0.5 µM.

With `COc1cc2nc(C)cc(N[C@H](C)c3cccc(C(F)F)c3F)c2cc1OC` [Compound A-2], the IC50 is not above 0.1 µM. Consider `Cc1c([C@@H](C)Nc2ccnc3cnc(C4(O)CCC(O)CC4)cc23)cccc1C(F)(F)F` (single isomer, unassigned) [Compound B-84-P2], for which the IC50 lay within 0.1 to 0.5 µM. `COC(=O)C1CCC(O)(c2cc3c(N[C@H](C)c4cccc(C(F)F)c4F)ccnc3cn2)CC1` (some centres unmarked) [Compound B-99]: the IC50 was not above 0.1 µM. The result for `COc1cc2c(N[C@H](C)c3cccc(C(F)F)c3F)ccnc2cc1OC1CCN(C(C)=O)CC1` [Compound A-16] reads not above 0.1 µM; that for `C[C@@H](Nc1ccnc2cnc(N3CCCC3=O)cc12)c1cccc(C(F)F)c1F` [Compound B-59], not above 0.1 µM; that for `CNC(=O)C1CCN(c2cc3c(N[C@H](C)c4cccc(C(F)F)c4F)ccnc3cn2)C(=O)C1` (some centres unmarked) [Compound B-55], not above 0.1 µM.

For the molecule `C[C@@H](Nc1ccnc2cnc(N3CCC(N(C)C)CC3)cc12)c1cccc(C(F)F)c1F` [Compound B-61], the IC50 is not above 0.1 µM. To `COc1cc2nccc(N[C@H](C)c3cccc(C(F)F)c3F)c2cc1OC1CCNCC1` [Compound A-17] belongs not above 0.1 µM.

As to `COc1cc2nccc(N[C@H](C)c3cccc(C(F)F)c3F)c2cc1C1=CCN(C(C)=O)CC1` [Compound A-39], the IC50 was not above 0.1 µM.

These data come from patent US20250042857A1, “SOS1 Inhibitor With Pyrido-Fused Six-Membered Ring Structure” (HAIHE BIOPHARMA CO., LTD., priority 2021, published 2025).
